Patent US20100297079A1, “COMPOUNDS, COMPOSITIONS AND METHODS FOR TREATING VIRAL INFECTION” (Chimerix, Inc., priority 2009, published 2010)
pEC50: −log10 of the molar value. Like-named read-outs stand apart in the source and are kept apart here.

Experiments:
Assay type in all cases: cell-based
HCV = experiment: Anti-HCV activity (HCV replicon assay); conditions: Hepatitis C virus
Method: (§1) Antiviral activity against HCV is determined using the stably-expressing HCV replicon cell line, AVA5 (sub-genomic (CON1), genotype 1b) (Okuse, et al., Antivir. Res. 65:23 (2005); Korba, et al., Antivir. Res. 77:56 (2008); Blight, et al., Science 290:1972 (2000)). Reductions in intracellular HCV RNA are determined with respect to a cellular control (B-actin) by blot hybridization. Cytotoxicity is assessed by neutral red dye uptake in parallel plates.
Efficacy and cell cytotoxicity values (EC50, EC90 and CC50) are calculated by linear regression analysis (MS EXCEL®, QuattroPro®) (Korba & Gerin, Antivir. Res. 19:55 (1992); Okuse, et al., Antivir. Res. 65:23 (2005)). The therapeutic index is calculated as CC50/EC50. Recombinant human interferon 2b (PBL laboratories, Inc.) is included as a positive control. Activity is subsequently tested against additional genotypes (e.g., genotype 1a) using the format described for the primary assay. In addition to antiviral assays described herein, several other types of anti-HCV activities can also be assessed using methods known to one of ordinary skill in the art. […]

HepG2 cells = experiment: Mitochondrial Biogenesis Assay; conditions: 7 days, ratio of Complex IV to Frataxin
Method: Cells used: HepG2 cells were obtained from ATCC. Cells are used up to 25 passages from the ATCC freeze.
Mitochondria Biogenesis Assay using HepG2 cells: 150,000 HepG2 cells were plated per well in a 6-well plate. Compounds were diluted in DMSO and further diluted in the plated cells so as to give a top concentration of 50 μM. Five four-fold dilutions were tested in this assay format. Plates were then incubated in a CO2 incubator at 37° C. for 7 days. Medium containing fresh compound was changed on day 3 and 6 of the assay. Cells were harvested on day 7 of the assay.
On day 7, cells were rinsed with 1×DPBS three times and scraped off into 1×DPBS and held on ice. Whole cell protein estimation was determined to make sure that the cells are suspended at a protein concentration of 3-5 mg/ml.
Cells were lysed on ice by addition of 1:10 volume of diluted detergent (MitoSciences) so as to have a final detergent concentration of 2%. Cells were held on ice for 1 hr and then centrifuged at ˜20K×g for 20 min. The supernatant fraction was used for determining solubilized Frataxin and Complex IV using an ELISA kit from MitoSciences. The ratio of Complex IV to Frataxin was used to determine mitochondrial toxicity. DMSO controls were run to determine ratio of Frataxin and Complex IV in control cells. ddC was run as a positive control in the assay.

[1] = Cytotoxicity (CC50) in parallel plates of the anti-HCV assay; conditions: human
Method: as §1
Efficacy and cell cytotoxicity values (EC50, EC90 and CC50) are calculated by linear regression analysis (MS EXCEL®, QuattroPro®) (Korba & Gerin, Antivir. Res. 19:55 (1992); Okuse, et al., Antivir. Res. 65:23 (2005)). The therapeutic index is calculated as CC50/EC50. Recombinant human interferon 2b (PBL laboratories, Inc.) is included as a positive control. Activity is subsequently tested against additional genotypes (e.g., genotype 1a) using the format described for the primary assay. In addition to antiviral assays described herein, several other types of anti-HCV activities can also be assessed using methods known to one of ordinary skill in the art.

MT4 Cell Toxicity Assay = conditions: human
Method: Cells used: MT4 cells were obtained from NIH AIDS research & Reference Reagent Program. Cells were used up to passage 30.
Toxicity assay using MTS: 5,000 MT4 cells were plated per well in a 96-well plate. Compounds were diluted in DMSO and further diluted with medium before adding to the plated cells. Plates were then incubated in a CO2 incubator at 37° C. for 6 days.
Cell viability was estimated using MTS, a tetrazolium compound [3-(4,5-dimethylthiazol-2-yl)-5-(3-carboxymethoxyphenyl)-2-(4-sulfophenyl)-2H-tetrazolium], which is converted to a soluble formazan by mitochondrial dehydrogenases in the presence of an electron coupling reagent (phenazine methosulfate; PMS). The formazan product has an absorption maximum around 490 nm. Forty microliters of MTS reagent [MTS (2 mg/ml) and PMS (0.92 mg/ml) mixed at a ratio of 20:1 just before use] was added to each well and plates incubated for 4 hrs at 37° C. Absorbance was read at 490 nm using a Synergy 2 plate reader (BioTek). Data analysis was carried out using the BioTek Gen5 software using a 4-parameter curve fitting function to determine CC50 values.

[2] = anti-HCV activity, read-out: EC50
[3] = AVA5 HCV replicon cells (sub-genomic CON1, genotype 1b)
[4] = MT4 cells, 6 days, MTS, read-out: MT-4 (TC50)

| SMILES | pEC50 (HCV; [2]) | Mitotoxicity (μM) (HepG2 cells) | CC50 [1, 3] | CC50 at 6 days (MT4 Cell Toxicity Assay; MT-4 (TC50) (μM)) | pEC50 (HCV) | CC50 [1] | CC50 at 6 days (MT4 Cell Toxicity Assay; [4]) |
| --- | --- | --- | --- | --- | --- | --- | --- |
| CC(C)=CCNc1ncnc2c1c(/C(N)=N\O)cn2[C@@H]1O[C@H](CO)[C@@H](O)[C@H]1O [Compound a] | > 7.00 | * (up to 20 μM) | < 1000 nM | > 100 µM |  |  |  |
| CCCCCCCCCCCCCCCCOCCCOP(=O)(O)OC[C@H]1O[C@@H](n2cc(C#N)c3c(N)ncnc32)[C@H](O)[C@@H]1O [Compound b] | > 7.00 | * (up to 20 μM) | < 1000 nM | < 1 µM |  |  |  |
| C[C@@]1(F)[C@H](O)[C@@H](CO)O[C@H]1n1cc(Br)c2c(N)ncnc21 [Compound c] |  |  | 20000 to 100000 nM |  |  |  |  |
| C[C@]1(O)C(n2cc(C(N)=S)c3c(N)ncnc32)O[C@H](CO)[C@H]1O (stereo partly drawn) [Compound d] | 5.30 to 6.00 | * (up to 20 μM) |  | 1 to 20 µM |  |  |  |
| CNC(=O)c1csc(-c2cn([C@@H]3O[C@H](CO)[C@@H](O)[C@@]3(C)O)c3ncnc(N)c23)c1 [Compound e] |  |  | 20000 to 100000 nM |  |  |  |  |
| C[C@@]1(F)[C@H](O)[C@@H](CO)O[C@H]1n1cc(-c2cccs2)c2c(N)ncnc21 [Compound f] | < 5.30 | * (up to 20 μM) |  |  |  |  |  |
| COC(=O)[C@H](C)NP(=O)(OC[C@H]1O[C@@H](n2cc(C(N)=S)c3c(N)ncnc32)[C@H](O)[C@@H]1O)Oc1ccccc1 (stereo partly drawn) [Compound g] |  |  |  |  | > 7.00 | < 1000 nM | < 1 µM |
| CCCCCCCCCCCCCCCCOCCCOP(=O)(O)OC[C@H]1O[C@@H](n2cc(C(N)=S)c3c(N)ncnc32)[C@H](O)[C@@H]1O [Compound h] | > 7.00 |  | < 1000 nM | < 1 µM |  |  |  |
| C[C@@]1(O)[C@H](O)[C@@H](CO)O[C@H]1n1cc(C#N)c2c(N)ncnc21 [Compound j] | 6.00 to 7.00 | ** (20-50 μM) |  | 20 to 100 µM |  |  |  |
| COC(=O)[C@H](C)NP(=O)(OC[C@H]1O[C@@H](n2cc(C(N)=S)c3c(N)ncnc32)[C@](C)(O)[C@@H]1O)Oc1ccccc1 (stereo partly drawn) [Compound k] |  | * (up to 20 μM) |  |  | 6.00 to 7.00 | 1000 to 20000 nM | 20 to 100 µM |
| [N-]=[N+]=N[C@H]1C(O)C(CO)OC1n1cc(C(N)=S)c2c(N)ncnc21 (stereo partly drawn) [Compound l] | 6.00 to 7.00 | *** (50-80 μM) | 1000 to 20000 nM | > 100 µM |  |  |  |
| COC(=N)c1cn(CC2(F)COC(CO)C2O)c2ncnc(N)c12 (stereo not drawn) [Compound m] | < 5.30 |  |  | 20 to 100 µM |  |  |  |
| CC(C)CCNc1ncnc2c1c(C(=N)NO)cn2[C@@H]1O[C@H](CO)[C@@H](O)[C@H]1O [Compound n] | 5.30 to 6.00 |  | 1000 to 20000 nM | > 100 µM |  |  |  |
| CNC(=O)c1csc(-c2cn([C@@H]3O[C@H](CO)[C@@H](O)[C@H]3O)c3ncnc(N)c23)c1 [Compound o] | 5.30 to 6.00 |  | 20000 to 100000 nM |  |  |  |  |
| NC(=S)c1cn(C2O[C@H](CO)[C@@H](O)[C@H]2O)c2ncnc(N)c12 (stereo partly drawn) [Compound p] |  | * (up to 20 μM) |  |  | > 7.00 | < 1000 nM | < 1 µM |
| CCCCCCCCCCCCCCCCOCCCOP1(=O)OC[C@H]2O[C@@H](n3cc(C(N)=S)c4c(N)ncnc43)[C@H](O)[C@@H]2O1 (stereo partly drawn) [Compound q] | > 7.00 |  | 1000 to 20000 nM | < 1 µM |  |  |  |
| Nc1ncnc2c1c(Br)cn2[C@@H]1O[C@H](CO)[C@@H](O)[C@H]1O [Compound r] | 5.30 to 6.00 |  |  | 1 to 20 µM |  |  |  |
